This is an account of results in patent US9994541B2, “Nitroalkene trolox derivatives and methods of use thereof in the treatment and prevention of inflammation related conditions” (Institut Pasteur de Montevideo, priority 2016, dated 2018).

Structures are written as SMILES. pIC50: −log10 of the molar value.

The subject of series [1] is HO-1. In words: Western blot of HO-1 protein expression in Raw 264.7 macrophages. The format is cell-based, murine. Conditions: Raw 264.7 cells, 5 μM, 18 hours. The method, then: (§1) Raw 264.7 cells, a murine macrophage cell line catalog no. TIB-71TM (ATCC, Manassas, Va.), were treated with NATx0 or NATx5 (5 μM) for 18 hours. Cells were lysed, and total protein concentration was measured with Pierce BCA assay (Thermo Fisher Scientific, Rockford, Ill.). For electrophoresis, 30 μg of protein was used in each line. The proteins were electrophoresed on a Tris/glycine SDS-polyacrylamide gradient gel (10-15%) and transferred to nitrocellulose membrane. The primary antibodies used for detection was rabbit polyclonal anti-HO-1 or anti-GCLM (Abcam, Cambridge, Mass.). Blots were visualized using horseradish peroxidase-conjugated secondary antibodies and ECL Plus detection system (GE Healthcare, Little Chalfont, UK). Blots were detected with a scanner. Protein expression was quantified with ImageQuant TL7.0 software (GE Healthcare, Little Chalfont, UK).
A general note: In western blotting, separated proteins are transferred to a membrane and probed.

The test system of series [2] is GCLM. In words: Western blot of GCLM protein expression in Raw 264.7 macrophages. The format is cell-based, murine. The note with it: Raw 264.7 cells, 5 μM, 18 hours. As to the method:
as §1

The nature of series [3]: Michael adduct formation with glutathione (UV-visible spectra, stopped-flow kinetics). Conditions: 25 μM compound, absorbance at 260 nm, 25° C. The format is physicochemical. The method, then: In FIG. 3, 130 μM NATx0 was incubated with 2 mM Glutathione (Sigma) in 100 mM pH 7 phosphate buffer. UV-visible spectra was acquired by a Varian Cary 50 Bio. Scans were taken every min up to 15 min.
FIG. 4 illustrates a second order rate constant of the reaction between NATx0 and GSH. Stopped-flow kinetic measurements were performed using a Rx 2000 stopped flow analyzer (Applied Photophysics). Mixutres of 150 μL NATx0 (25 μM) and solutions of BME at 0.54 mM, 1.09 mM, 1.64 mM, 2.18 mM, and 2.73 mM concentrations.

Series [4] deals with RAW 264.7 cells. Description: Cytotoxicity in RAW 264.7 cells (MTT assay). The note with it: Mus musculus, RAW264.7, 24 h treatment, read-out: IC50 (cell viability). In kind it is cell-based, murine. As to the method:
FIG. 8 NATx0 cell cytotoxicity was evaluated in RAW 264.7 cells at 1, 5, 10, 50 and 100 μM in DMSO. Cells were treated for 24 h with NATx0 and then MTT assay was performed. The absorbance at 570 nm was measured for each condition by triplicate. The % cell liability was calculated using control group (DMSO, without treatment). The half maximal inhibitory concentration (IC50) was calculated after % cell viability was plotted against the concentration of NATx0 and fitted to an exponential function using OriginLab software (version 8.0).
Background: Tetrazolium dyes change colour on reduction, which living cells bring about.

The nature of series [5]: Michael adduct formation with β-mercaptoethanol (UV-visible spectra, stopped-flow kinetics). In kind it is physicochemical. The note with it: 25 μM compound, BME 0.54-2.73 mM, absorbance at 260 nm, 25° C. As to the method: UV-visible spectra was acquired by a Varian Cary 50 Bio. Scans were taken every min up to 15 min.
In FIG. 2, it is shown that the reaction between NATx0 and BME was determined to be a second order rate constant. Stopped-flow kinetic measurements were performed using a Rx 2000 stopped flow analyzer (Applied Photophysics). Mixutres of 150 μL NATx0 (25 μM) and solutions of BME at 0.54 mM, 1.09 mM, 1.64 mM, 2.18 mM, and 2.73 mM concentrations.

Series [6] relates to NLRP3 inflammasome. Description: NLRP3 inflammasome activation in THP-1 macrophages, IL-1β by ELISA. The format is cell-based. The method, then: (§2) FIGS. 6A and 6B illustrate the effect of NATx0 on cell viability and NLRP3 inflammasome activation. THP-1 cells were differentiated into macrophages (PMA 200 nM, 48 hours). […] The cells were treated with NATx0 at 0.5 μM, 1.0 μM, 2.5 μM, 5.0 μM, 10 μM and 20 μM concentrations together with the first signal or the second signal. Cell viability was measured by MTT assay. Supernatant was stored.
In FIGS. 7A and 7B, supernatant stored from the previously described experiment were measured for IL-1β by ELISA.
(§3) At the first signal, we only observed a full inhibition of the inflammasome at 20 μM.

For series [7], the system named is NF-κB/p65. Description: LPS-induced NF-κB/p65 nuclear translocation in THP-1 macrophages (immunofluorescence). Conditions: 10 uM, 2 hs before LPS (1 ug/mL). In kind it is cell-based. An excerpt:
Nuclear factor kappa B (NF-κB) represents a family of pro-inflammatory transcription factors, present in all eukaryotic cells, which regulate inducible expression of wide ranging genes involved in immune responses and cell-cycle regulation. Activation of NF-κB is accompanied by nuclear translocation of NF-κB. […] Specifically, FIG. 11 illustrates immunofluorescence and epifluorescence microscopy analysis showing the effect of NATx0 on LPS-induced NF-κB/p65 subcellular localization in THP-1 macrophages.

Series [8] deals with serum levels of IL-1β. Description: LPS-induced inflammatory response in C57BL/6 mice, serum IL-1β by ELISA. Conditions: 20 mg/kg i.p. 1 hour before 10 mg/kg LPS i.p., 2 hours after LPS. In kind it is in vivo. As to the method: In vivo testing was carried out in C57BL/6 mice. The mice were injected intraperitoneally (“i.p.”) with 20 mg/kg NATx0 or a control (DMSO) 1 hour before i.p. injection of 10 mg/kg LPS Escherichia coli 055:B5 (Sigma-Aldrich). After 2 hours the mice were killed, and serum levels of IL-1β were measured by ELISA to determine inflammatory response.
(In an ELISA, binding on a coated surface is turned into a signal by an enzyme label.)

In series [9] the test system is THP-1 cells. Description: Cell viability (MTT) of THP-1 macrophages stimulated with LPS and ATP. The format is cell-based. Conditions: THP-1 macrophages activated by LPS or ATP, compound 0.5-20 μM together with first or second signal. The method, then: as §2, §3
Series [10] can be described thus: Stability in polyethylene glycol 300-400 at 37° C. In kind it is physicochemical. Conditions: PEG 300 to PEG 400, 37° C., two weeks, RP-HPLC. As to the method:
FIG. 10 presents the incubation of NATx0 incubated in PEG 300 to PEG 400 at 37° C. for two weeks. At each time point, an aliquot was extracted with methanol and analyzed by reverse phase chromatography as before. After two weeks in 37° C. in PEG, 50% of the initial concentration of NATx0 was recovered.

As to `CCC/C(=C\C1(C)CCc2c(C)c(O)c(C)c(C)c2O1)[N+](=O)[O-]` (racemic) [NATx5, (±)-2,5,7,8-tetramethyl-2-[(E)-2-nitropent-1-en-1-yl]chroman-6-ol], in series [1], the HO-1 protein expression result is recorded as “induced the expression”. Further, the GCLM protein expression result in series [2] is reported as “induced the expression”.

On to `Cc1c(C)c2c(c(C)c1O)CCC(C)(/C=C/[N+](=O)[O-])O2` (racemic) [NATx0, (±)-2,5,7,8-tetramethyl-2-[(E)-2-nitrovinyl]chroman-6-ol], for which, in [3], the “second order rate constant of the reaction with GSH” value was determined as 23.45 M⁻¹ s⁻¹. The pIC50 (in general, −log10 of the IC50, conventionally taken in molar units) in series [4] was 4.62. Besides, the “second order rate constant of the reaction with BME” value in series [5] was found to be 23.45 M⁻¹ s⁻¹. Moreover, in series [6] (compound applied together with the first signal (LPS 250 ng/mL, 3 hours)), the “concentration giving full inhibition of the inflammasome” value was 20 µM. For the same compound, the “concentration at which NLRP3 inflammasome activation is already inhibited” value in series [6] (compound applied together with the second inflammasome-activating signal) was 5 µM. For the same compound, the “inhibition of inflammasome activation (IL-1β)” value in series [6] (compound applied together with the second signal (ATP 5 mM, 45 minutes), 0.5-20 μM) was “inhibited inflammasome activation in dose dependent manner”. In addition, the HO-1 protein expression entry in series [1] is given as “induced the expression”. For the same compound, in series [7], the “LPS-induced NF-κB/p65 nuclear translocation” value was “no change from the negative control”. Further, in series [8], the “inflammatory response (serum IL-1β)” value is given as “did not increase”. Also, the “cell mortality (cell viability by MTT)” value in [9] is reported as “does not induce an increase in cell mortality”. In series [2], the GCLM protein expression result is listed as “induced the expression”. In addition, the initial concentration recovered in series [10] was found to be 50%.
